# Reference: ChEMBL document CHEMBL1152605, “Novel 7H-pyrrolo[2,3-d]pyrimidine derivatives as potent and orally active STAT6 inhibitors” (Bioorg Med Chem, 2009)
# How the values were obtained:
# [1] = molecular target: T1, Signal transducer and activator of transcription 6 (Homo sapiens, UniProt P42226); experiment: Inhibition of STAT6 in IL4-stimulated human FW4 reporter cells by luciferase assay
# T1 sequence (P42226 whole entry): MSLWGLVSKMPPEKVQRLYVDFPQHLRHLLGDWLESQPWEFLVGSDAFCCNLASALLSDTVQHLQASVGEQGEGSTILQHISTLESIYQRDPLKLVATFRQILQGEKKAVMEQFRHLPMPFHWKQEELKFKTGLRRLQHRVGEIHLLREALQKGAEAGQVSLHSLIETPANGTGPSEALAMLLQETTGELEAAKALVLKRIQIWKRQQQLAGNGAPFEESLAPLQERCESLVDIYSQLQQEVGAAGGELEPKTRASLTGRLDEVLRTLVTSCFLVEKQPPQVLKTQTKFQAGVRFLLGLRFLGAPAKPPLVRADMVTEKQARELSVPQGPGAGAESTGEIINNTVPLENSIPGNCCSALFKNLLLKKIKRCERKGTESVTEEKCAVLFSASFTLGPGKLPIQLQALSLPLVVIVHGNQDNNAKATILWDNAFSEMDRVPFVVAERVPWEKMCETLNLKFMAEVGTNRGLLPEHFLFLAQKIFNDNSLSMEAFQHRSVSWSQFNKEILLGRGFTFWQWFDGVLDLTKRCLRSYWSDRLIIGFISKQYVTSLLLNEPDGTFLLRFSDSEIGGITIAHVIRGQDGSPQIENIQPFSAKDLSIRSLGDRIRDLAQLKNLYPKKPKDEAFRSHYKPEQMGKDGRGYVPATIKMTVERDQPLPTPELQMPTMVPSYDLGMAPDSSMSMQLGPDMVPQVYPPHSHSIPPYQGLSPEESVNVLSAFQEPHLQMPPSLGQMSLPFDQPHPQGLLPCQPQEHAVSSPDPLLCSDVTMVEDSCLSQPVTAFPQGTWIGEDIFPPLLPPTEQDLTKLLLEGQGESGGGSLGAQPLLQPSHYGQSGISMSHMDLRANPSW
# [2] = molecular target: T2, CYP3A4 (Homo sapiens, UniProt P08684); experiment: Inhibition of CYP3A4 in human liver microsomes assessed as residual activity at 5 uM; assay type: ADME, Microsome; conditions: read-out: Activity
# T2 sequence (P08684 whole entry): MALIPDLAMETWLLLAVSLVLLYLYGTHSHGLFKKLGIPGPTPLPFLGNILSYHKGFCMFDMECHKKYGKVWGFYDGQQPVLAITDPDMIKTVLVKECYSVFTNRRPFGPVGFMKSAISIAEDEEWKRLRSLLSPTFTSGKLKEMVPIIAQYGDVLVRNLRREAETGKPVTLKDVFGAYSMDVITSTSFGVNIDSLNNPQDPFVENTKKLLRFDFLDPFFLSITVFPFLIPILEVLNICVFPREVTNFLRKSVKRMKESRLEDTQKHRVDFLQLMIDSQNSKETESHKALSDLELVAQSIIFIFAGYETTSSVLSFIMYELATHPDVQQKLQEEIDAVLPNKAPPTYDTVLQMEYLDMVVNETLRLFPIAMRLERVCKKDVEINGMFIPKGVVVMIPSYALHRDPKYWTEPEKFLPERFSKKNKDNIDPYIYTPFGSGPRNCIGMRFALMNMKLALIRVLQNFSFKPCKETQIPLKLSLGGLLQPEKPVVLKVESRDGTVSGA
# [3] = molecular target: T2, CYP3A4; experiment: Inhibition of CYP3A4 in human liver microsomes assessed as residual activity at 5 uM after 30 mins; assay type: ADME, Microsome; conditions: read-out: Activity
# [4] = tested on: T-cell; experiment: Inhibition of IL4 production in C57BL/6 mouse T cell after 16 hrs by T cell differentiation assay; assay type: functional, cell-based; conditions: C57BL/6, T-cell
# [5] = species on record: Mus musculus; experiment: Antiasthmatic activity in OVA-induced pulmonary eosinophila BALB/c mouse model assessed as suppression of eosinophil infiltration in lung treated 30 mins before and 24, 48 hrs after OVA challenge; assay type: functional, organism-based
SMILES,IC50 [1] [nM],activity at 5 µM [2] [%],"activity at 0.5 h, 5 µM [3] [%]",IC50 [4] [nM],Activity [5]
c1ccc(CN2CCc3cnc(Nc4ccc(N5CCOCC5)cc4)nc32)cc1,8300,,,,
NC(=O)CN1CCN(c2ccc(Nc3ncc4ccn(Cc5cc(F)cc(F)c5)c4n3)cc2)CC1,1.9,104,85,2.4,Dose-dependent effect
Fc1ccc(Cn2ccc3cnc(Nc4ccc(N5CCOCC5)cc4)nc32)cc1,4100,82,43,,
c1ccc(Cn2ccc3cnc(Nc4ccc(N5CCOCC5)cc4)nc32)cc1,400,88,34,,
O=C(O)CN1CCN(c2ccc(Nc3ncc4ccn(Cc5cc(F)cc(F)c5)c4n3)cc2)CC1,26,100,98,,
NC(=O)c1cnc(Nc2ccc(N3CCOCC3)cc2)nc1NCc1ccccc1,6.5,,,,
Fc1cccc(Cn2ccc3cnc(Nc4ccc(N5CCOCC5)cc4)nc32)c1,37,97,56,,
CN1CCN(c2ccc(Nc3ncc4ccn(Cc5cc(F)cc(F)c5)c4n3)cc2)CC1,3.2,90,88,,
Fc1ccccc1Cn1ccc2cnc(Nc3ccc(N4CCOCC4)cc3)nc21,220,78,32,,
Fc1cc(F)cc(Cn2ccc3cnc(Nc4ccc(N5CCOCC5)cc4)nc32)c1,120,80,37,,
OCCN1CCN(c2ccc(Nc3ncc4ccn(Cc5cc(F)cc(F)c5)c4n3)cc2)CC1,5.6,86,86,,
Fc1cc(F)cc(Cn2ccc3cnc(Nc4ccc(N5CCNCC5)cc4)nc32)c1,12,74,95,,
NC(=O)c1cnc(Nc2ccc(N3CCOCC3)cc2)nc1NCc1c(F)ccc(F)c1F,0.7,100,31,,
NCCN1CCN(c2ccc(Nc3ncc4ccn(Cc5cc(F)cc(F)c5)c4n3)cc2)CC1,34,65,105,,
CNC(=O)CN1CCN(c2ccc(Nc3ncc4ccn(Cc5cc(F)cc(F)c5)c4n3)cc2)CC1,4.7,85,77,,
